IC50 data for 25 compounds are collected here from patent publication US9868727B2, “Factor XIa inhibitors” (Merck Sharp & Dohme Corp., priority 2014, dated 2018).

pIC50: −log10 of the molar value.

The target of assay [1] is T1, purified Human plasma kallikrein (Homo sapiens, UniProt P03952).
T1 construct: yields a heavy chain (371 amino acids) and a light chain (248 amino acids); purchased Enzyme Research Laboratories
Put plainly: Kallikrein Assay. In kind it is biochemical. The settings on record: Plasma Kallekrein IC50; fluorogenic substrate Acetyl-K-P-R-AFC, 0.5 nM enzyme, pH 7.4; read-out: PK IC50. The protocol:
(§1) The effectiveness of a compound of the present invention as an inhibitor of Kallikrein can be determined using a relevant purified serine protease, and an appropriate synthetic substrate. The rate of hydrolysis of the chromogenic or fluorogenic substrate by the relevant serine protease was measured both in the absence and presence of compounds of the present invention. Assays were conducted at room temperature or at 37° C. […] A decrease in the rate of fluorescence change in the presence of inhibitor is indicative of enzyme inhibition. Such methods are known to one skilled in the art. The results of this assay are expressed as the inhibitory constant, K1.
Kallikrein determinations were made in 50 mM HEPES buffer at pH 7.4 containing 150 mM NaCl, 5 mM CaCl2, and 0.1% PEG 8000 (polyethylene glycol; Fisher Scientific). Determinations were made using purified Human plasma kallikrein at a final concentration of 0.5 nM (Enzyme Research Laboratories) and the synthetic substrate, Acetyl-K—P—R-AFC (Sigma # C6608) at a concentration of […].
Times required to achieve equilibration between enzyme and inhibitor were determined in control experiments. The reactions were performed under linear progress curve conditions and fluorescence increase measured at 405 Ex/510 Em nm. […] IC50 was determined by inflection point from a four parameter logistic curve fit. Ki was calculated using the Cheng Prusoff equation, Ki=IC50/(1+([S]/Km)).

Assay [2] deals with T2, purified human Factor XIa (Homo sapiens, UniProt P03951).
T2 construct: purified human Factor XIa; purchased Sekisui Diagnostics
Put plainly: Factor XIa Assay. The assay is classed as biochemical. The settings on record: fluorogenic substrate Z-Gly-Pro-Arg-AFC 100 μM, 40 pM enzyme, pH 7.4, read-out: F11a IC50. As for the experimental part: as §1, with “Coagulation Factor XIa” for “Kallikrein”, “The results of this assay are expressed as the inhibitory constant, K1.” left out
Factor XIa determinations were made in 50 mM HEPES buffer at pH 7.4 containing 150 mM NaCl, 5 mM CaCl2, and 0.1% PEG 8000 (polyethylene glycol; JT Baker or Fisher Scientific). Determinations were made using purified human Factor XIa at a final concentration of 40 pM (Sekisui Diagnostics) and he synthetic substrate, Z-Gly-Pro-Arg-AFC, TFA salt (Sigma #C0980) at a concentration of 100 μM.
Activity assays were performed by diluting a stock solution of substrate at least tenfold to a final concentration ≦0.1 Km into a solution containing enzyme or enzyme equilibrated with inhibitor. Times required to achieve equilibration between enzyme and inhibitor were determined in control experiments. Initial velocities of product formation in the absence (VO) or presence of inhibitor (Vi) were measured. Assuming competitive inhibition, and that unity is negligible compared Km/[S], [I]/e, and [I]/e (where [S], [I], and e respectively represent the total concentrations, of substrate, inhibitor and enzyme), the equilibrium constant (Ki) for dissociation of the inhibitor from the enzyme can be obtained from the dependence of VO/Vi on [I] shown in the following equation.

T2 sequence (P03951 388-625 limits assumed): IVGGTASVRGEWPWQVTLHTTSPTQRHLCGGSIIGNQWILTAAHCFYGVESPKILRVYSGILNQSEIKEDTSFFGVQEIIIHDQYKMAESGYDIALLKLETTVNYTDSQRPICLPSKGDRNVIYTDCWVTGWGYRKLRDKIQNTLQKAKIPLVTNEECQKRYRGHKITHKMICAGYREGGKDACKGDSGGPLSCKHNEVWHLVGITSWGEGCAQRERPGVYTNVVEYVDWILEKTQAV
T2 sequence (P03951 19-387 partner limits assumed): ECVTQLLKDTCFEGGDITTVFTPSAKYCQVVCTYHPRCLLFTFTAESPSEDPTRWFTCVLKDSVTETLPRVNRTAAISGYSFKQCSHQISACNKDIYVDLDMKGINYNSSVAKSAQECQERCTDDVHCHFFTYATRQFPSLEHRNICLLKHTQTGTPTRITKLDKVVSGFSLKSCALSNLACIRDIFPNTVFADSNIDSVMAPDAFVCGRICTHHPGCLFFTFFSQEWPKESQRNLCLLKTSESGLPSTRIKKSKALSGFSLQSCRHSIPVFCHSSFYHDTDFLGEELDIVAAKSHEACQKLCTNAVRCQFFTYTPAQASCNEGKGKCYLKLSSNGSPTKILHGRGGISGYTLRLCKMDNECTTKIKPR
T1 sequence (P03952 391-638 limits assumed): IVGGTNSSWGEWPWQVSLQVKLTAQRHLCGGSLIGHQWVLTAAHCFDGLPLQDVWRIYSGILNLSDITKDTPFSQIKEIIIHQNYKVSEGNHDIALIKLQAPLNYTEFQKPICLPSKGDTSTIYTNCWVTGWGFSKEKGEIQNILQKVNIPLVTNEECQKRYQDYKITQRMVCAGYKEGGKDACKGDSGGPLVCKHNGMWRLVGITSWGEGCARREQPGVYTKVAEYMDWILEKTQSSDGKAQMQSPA
T1 sequence (P03952 20-390 partner limits assumed): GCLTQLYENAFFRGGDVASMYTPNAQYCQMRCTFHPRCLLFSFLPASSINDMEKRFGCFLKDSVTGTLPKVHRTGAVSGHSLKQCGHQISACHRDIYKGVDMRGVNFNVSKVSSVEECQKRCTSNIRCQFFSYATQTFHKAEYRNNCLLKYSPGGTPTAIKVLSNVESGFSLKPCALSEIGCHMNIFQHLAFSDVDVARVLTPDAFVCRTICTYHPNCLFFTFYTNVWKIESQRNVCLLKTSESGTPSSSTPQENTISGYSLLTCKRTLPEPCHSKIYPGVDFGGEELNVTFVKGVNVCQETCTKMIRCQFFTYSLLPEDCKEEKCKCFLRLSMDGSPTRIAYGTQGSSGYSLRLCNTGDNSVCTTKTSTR

As usually defined, the pIC50 is the IC50 on a negative log10 scale, so that one unit is a factor of ten. Consider `COC(=O)c1scc(-c2cnc(C(CC3CC3)c3ccc(-c4cc(Cl)ccc4-n4cnnn4)c[n+]3[O-])[nH]2)c1F` (single isomer, unassigned) [Example 61, Methyl 4-[2-(1-{5-[5-chloro-2-(1H-tetrazol-1-yl)phenyl]-1-oxidopyridin-2-yl}-2-cyclopropylethyl)-1H-imidazol-5-yl]-3-fluorothiophene-2-carboxylate], for which the pIC50 in assay [1] was 6.46; in assay [2] it was 7.28.

As to `O=C(O)c1cccc(-c2c[nH]c(C(CC3CC3)c3ccc(-c4cc(Cl)ccc4-n4cnnn4)c[n+]3[O-])n2)c1` (single isomer, unassigned) [Example 53], the pIC50 was 7.21 in assay [1] and 9.05 in assay [2].

Take `NC(=O)c1scc(-c2cnc(C(CC3CC3)c3ccc(-c4cc(Cl)ccc4-n4cnnn4)c[n+]3[O-])[nH]2)c1F` (single isomer, unassigned) [Example 60, 2-(1-(5-(5-carbamoyl-4-fluorothiophen-3-yl)-1H-imidazol-2-yl)-2-cyclopropylethyl)-5-(5-chloro-2-(1H-tetrazol-1-yl)phenyl)pyridine 1-oxide]: the values for the negative logarithm of the IC50 (pIC50) in assay [1] and in assay [2] were 7.12 and 8.31, respectively.

With `[O-][n+]1cc(-c2cc(Cl)ccc2-n2cnnn2)ccc1C(Cc1ccc(F)cc1)c1nc(-c2ccc(F)cc2)c[nH]1` (single isomer, unassigned) [Example 16], the negative-log IC50 (pIC50) in assay [1] was 9.11; in assay [2] it was 8.42.

Regarding `COC(=O)Nc1ccc(-c2[nH]c(C(CC3CC3)c3ccc(-c4cc(Cl)ccc4-n4cnnn4)c[n+]3[O-])nc2C)cc1` (single isomer, unassigned) [Example 76, methyl {4-[2-(1-{5-[5-chloro-2-(1H-tetrazol-1-yl)phenyl]-1-oxidopyridin-2-yl}-2-cyclopropylethyl)-4-methyl-1H-imidazol-5-yl]phenyl}carbamate], the pIC50 in assay [1] was 6.10; in assay [2], 7.43.

On to `Nc1ccc(-c2c[nH]c(C(CC3CC3)c3ccc(-c4cc(Cl)ccc4-n4cnnn4)c[n+]3[O-])n2)cn1` (single isomer, unassigned) [Example 50], for which the pIC50 in assay [1] is 6.64; in assay [2], 8.97.

In the case of `[O-][n+]1cc(-c2cc(Cl)ccc2-n2cnnn2)ccc1C(Cc1ccc(F)cc1)c1nc(-c2ccc(Cl)cc2)c[nH]1` (single isomer, unassigned) [Example 22], the pIC50 was 6.71 in assay [1] and 8.19 in assay [2].

Take `COC(=O)Nc1ccc(-c2nc([C@H](Cc3ccccc3)c3ccc(-c4cc(Cl)ccc4-n4cnnn4)c[n+]3[O-])[nH]c2Cl)cc1` [Example 1, (R) 5-(5-Chloro-2-(1H-tetrazol-1-yl)phenyl)-2-(1-(5-chloro-4-(4-((methoxycarbonyl)amino)phenyl)-1H-imidazol-2-yl)-2-phenylethyl)pyridine 1-oxide]: the pIC50 is 8.82 in assay [1] and 8.87 in assay [2].

`COC(=O)Nc1ccc(-c2cnc(C(CC3CC3)c3ccc(-c4cc(Cl)ccc4-n4cnnn4)c[n+]3[O-])[nH]2)c(C)c1` (single isomer, unassigned) [Example 34]: the pIC50 in assay [1] was 7.50; in assay [2], 9.62.

As for `COC(=O)Nc1ccc(-c2cnc([C@H](Cc3ccccc3)c3ccc(-c4cc(Cl)ccc4-c4cnco4)c[n+]3[O-])[nH]2)cc1` [Example 25], the values for the pIC50 in assay [1] and in assay [2] were 7.62 and 8.48, respectively.

As for `COC(=O)Nc1ccc(-c2cnc(C(CC3CC3)c3ccc(-c4cc(Cl)ccc4-n4cnnn4)c[n+]3[O-])[nH]2)cc1F` (single isomer, unassigned) [Example 40], the pIC50 in assay [1] is 7.41; in assay [2], 8.82.

Take `Nc1ccc(-c2c[nH]c(C(CC3CC3)c3ccc(-c4cc(Cl)ccc4-n4cnnn4)c[n+]3[O-])n2)cn1` (single isomer, unassigned) [Example 49]: the pIC50 in assay [1] was 5.67; in assay [2] it was 7.71.

As for `COC(=O)Nc1ccc(-c2cnc(C(CC3(C)CC3)c3ccc(-c4cc(Cl)ccc4-n4cnnn4)c[n+]3[O-])[nH]2)cc1` (single isomer, unassigned) [Example 43], the pIC50 in assay [1] is 6.05; in assay [2], 7.32.

For the compound `COC(=O)Nc1ccc(-c2cnc(C(CC3(C)CC3)c3ccc(-c4cc(Cl)ccc4-n4cnnn4)c[n+]3[O-])[nH]2)cc1` (single isomer, unassigned) [Example 44], the pIC50 in assay [1] is 7.83; in assay [2], 8.82.

On to `O=C(O)c1cccc(-c2cnc(C(CC3CC3)c3ccc(-c4cc(Cl)ccc4-n4cnnn4)c[n+]3[O-])[nH]2)c1F` (single isomer, unassigned) [Example 51, 3-[2-(1-{5-[5-chloro-2-(1H-tetrazol-1-yl)phenyl]-1-oxidopyridin-2-yl}-2-cyclopropylethyl)-1H-imidazol-5-yl]-2-fluorobenzoic acid], for which the negative logarithm of the IC50 (pIC50) is 7.10 in assay [1] and 9.06 in assay [2].

As for `COC(=O)Nc1ccc(-c2cnc([C@@H](Cc3ccccc3)c3ccc(-c4c(-n5cnnn5)ccc(Cl)c4F)c[n+]3[O-])[nH]2)cc1` [Example 24], the negative logarithm of the IC50 (pIC50) in assay [1] was 7.05; in assay [2], 8.63.

For `[O-][n+]1cc(-c2cc(Cl)ccc2-n2cnnn2)ccc1C(Cc1ccccc1)c1nc(-c2cccc(F)c2)c[nH]1` (single isomer, unassigned) [Example 3], the pIC50 in assay [1] was 7.56; in assay [2], 8.54.

Take `Nc1ccc(-c2cnc(C(CC3CC3)c3ccc(-c4cc(Cl)ccc4-n4cnnn4)c[n+]3[O-])[nH]2)c(Cl)n1` (single isomer, unassigned) [Example 47, 6-chloro-5-[2-(1-{5-[5-chloro-2-(1H-tetrazol-1-yl)phenyl]-1-oxidopyridin-2-yl}-2-cyclopropylethyl)-1H-imidazol-5-yl]pyridin-2-amine]: the negative-log IC50 (pIC50) was 7.10 in assay [1] and 9.49 in assay [2].

`COC(=O)Nc1ccc(-c2cnc(C(CC3CC3)c3ccc(-c4cc(Cl)ccc4-n4cnnn4)c[n+]3[O-])[nH]2)c(C)c1` (single isomer, unassigned) [Example 33]: the pIC50 in assay [1] was 6.20; in assay [2] it was 7.72.

Take `COC(=O)Nc1ccc(-c2cnc(C(CC3CC3)c3ccc(-c4cc(Cl)ccc4-n4cnnn4)c[n+]3[O-])[nH]2)c(F)c1` (single isomer, unassigned) [Example 38]: the negative-log IC50 (pIC50) in assay [1] was 7.41; in assay [2], 9.32.

As to `COC(=O)Nc1ccc(-c2c[nH]c(C(Cc3ccccc3)c3ccc(-c4c(F)ccc(Cl)c4F)c[n+]3[O-])n2)cc1` (single isomer, unassigned) [Example 5], the pIC50 is 6.86 in assay [1] and 7.37 in assay [2].

Consider `[O-][n+]1cc(-c2cc(Cl)ccc2-n2cnnn2)ccc1C(Cc1ccccc1)c1nc(-c2cccc(F)c2)c[nH]1` (single isomer, unassigned) [Example 4], for which the figures for the pIC50 in assay [1] and in assay [2] were 6.20 and 7.41, respectively.

As to `O=C(O)c1scc(-c2c[nH]c(C(Cc3ccccc3)c3ccc(-c4cc(Cl)ccc4-n4cnnn4)c[n+]3[O-])n2)c1F` (single isomer, unassigned) [Example 10], the negative-log IC50 (pIC50) in assay [1] is 6.93; in assay [2], 8.00.

In the case of `COC(=O)Nc1ccc(-c2cnc([C@H](Cc3ccccc3)c3ccc(-c4c(-n5cnnn5)ccc(Cl)c4F)c[n+]3[O-])[nH]2)cc1` [Example 23], the negative-log IC50 (pIC50) in assay [1] is 8.81; in assay [2], 8.98.

Take `COC(=O)Nc1ccc(-c2nc([C@@H](Cc3ccccc3)c3ccc(-c4cc(Cl)ccc4-n4cnnn4)c[n+]3[O-])[nH]c2Cl)cc1` [Example 2, (S) 5-(5-Chloro-2-(1H-tetrazol-1-yl)phenyl)-2-(1-(5-chloro-4-(4-((methoxycarbonyl)amino)phenyl)-1H-imidazol-2-yl)-2-phenylethyl)pyridine 1-oxide]: the pIC50 was 7.12 in assay [1] and 8.55 in assay [2].
